Source: patent US20080153908A1, “Method of Treating Mucin Deficiency with an Active Pharmaceutical and Related Composition” (priority 2006, published 2008)

Assays:
rat colon cells = settings: isolated vascularly perfused rat colon; cited from earlier work
[1] = tested on: mucin content of tear film; assay: Stimulation of mucin production: tear film mucin content in patients with mucin deficiency; assay type: in vivo, human; settings: 0.5 wt. % solution in artificial tear solution, four-times a day for four days; control receives artificial tear solution
Protocol: A 0.5 wt. % solution of sodium butyrate in artificial tear solution is administered to one of a […] that suffer from mucin deficiency. The patients receiving butyrate drops belong to the study group. The patients in the control group receive artificial tear solution. Both groups receive treatment four-times a day for four days. Following treatment, tear film samples are collected and tested to quantify mucin content.

colonic mucin production = settings: about 0.1 millimolar sodium butyrate; tissue harvested from colonic cancer patients; cited from earlier work

SMILES	stimulation of mucin secretion of rat colon cells (rat colon cells)	concentration of mucin in tear film samples versus control group [1]	increase in colonic mucin production compared to a control group (colonic mucin production)
CC(=O)O [acetate]	can stimulate the mucin secretion	–	–
CCCC(=O)[O-].[Na+] [sodium butyrate]	–	higher concentration of mucin	almost five fold increase
CCC(=O)O [propionate]	can stimulate the mucin secretion	–	–
